Test results published in patent US12357603B2, “Acyl sulfonamides for treating cancer” (Bayer Aktiengesellschaft, priority 2019, dated 2025).

What was measured:
ZR-75-1 cells = experiment: Proliferation assay ZR-75-1 (Alamar Blue, 144 h); assay type: cell-based; details: Homo sapiens, ZR-75-1, 144 h, arithmetic mean, read-out: ZR75-1 proliferation assay, EC50 [M] (arithmetic mean)
How it was run: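 Cells seeded at 3000/well in RPMI 1640 with 2.5% FBS and treated 24 h later across 2.0×10E-5 to 2.0×10E-9 M (9 dilutions, 0.2% DMSO, triplicate). After 144 h at 37 °C, 5% CO2, viability read by Alamar Blue fluorescence at 590 nm following 2 h reagent incubation.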

[1] = system: ESR1 transcription (luciferase signal in MVLN cells); experiment: Repression of ESR1 transcription, luciferase reporter in MVLN cells; assay type: cell-based; details: Homo sapiens, MVLN, inhibition of luciferase signal in MVLN cells; arithmetic mean
How it was run: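 MVLN cells (constitutive ER, stably carrying a Vitellogenin A2 hormone-responsive element–luciferase reporter) treated in duplicate; luciferase read after 24 h. Cell density checked by Alamar Blue fluorescence (530/590 nm) after 2 h to exclude cell-loss effects.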

[2] = biological target: Recombinant human GST-tagged Kat6b protein (431-end); experiment: Kat6b activity assay (TR-FRET, acetylation of biotinylated Histone-H4-derived peptide); assay type: biochemical; details: 30 mins at 22° C., read-out: KAT6B activity assay IC50 [mol/l] (arithmetic mean)
Protocol: Kat6b inhibitory activities of the compounds described in the present invention were quantified using a Fluorescence Resonance Energy Transfer (TR-FRET) assay which measures acetylation of a synthetic, biotinylated Histone-H4-derived peptide by the enzyme.
In this case 50 nl DMSO were used instead of compounds. […] IC50 values were determined by regression analysis based on a 4 parameter equation (minimum, maximum, ICM, Hill; Y=Max+(Min−Max)/(1+(X/ICso) Hill) using the Screener Software (Genedata).

MDA-MB-436 cells = experiment: Proliferation assay MDA-MB-436, negative control cell line (Alamar Blue, 144 h); assay type: cell-based; details: Homo sapiens, MDA-MB-436, 144 h, arithmetic mean
How it was run: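 MDA-MB-436 cells (3000/well, DMEM/Ham's F12 with 2.5% FBS) treated 24 h after plating with compounds at 2.0×10E-5 to 2.0×10E-9 M (9 dilutions, 0.2% DMSO), triplicates, 144 h at 37 °C, 5% CO2. Viability by Alamar Blue, 2 h, fluorescence at 590 nm.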

[3] = biological target: Recombinant human His-tagged Kat6a protein (amino acids 194-810) (Homo sapiens (Human), UniProt Q92794); experiment: Kat6a activity assay (TR-FRET, acetylation of biotinylated Histone-H4-derived peptide); assay type: biochemical; details: 60 mins at 22° C., read-out: KAT6A-DPF/HAT domain IC50 [mol/l] (arithmetic mean)
How it was run: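 Sf9-expressed human His-Kat6a (aa 194-810) incubated 60 min at 22 °C with compounds (0.01-20 μM) in Tris pH 8 buffer containing 220 nM biotinylated H4 peptide (aa 1-24) and 600 nM acetyl-CoA. Acetyl-K8 detected by TR-FRET (665/620 nm ratio); IC50 by four-parameter fit versus DMSO controls.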

Recombinant human His-tagged Kat6a protein (amino acids 194-810), sequence (Q92794 194-810): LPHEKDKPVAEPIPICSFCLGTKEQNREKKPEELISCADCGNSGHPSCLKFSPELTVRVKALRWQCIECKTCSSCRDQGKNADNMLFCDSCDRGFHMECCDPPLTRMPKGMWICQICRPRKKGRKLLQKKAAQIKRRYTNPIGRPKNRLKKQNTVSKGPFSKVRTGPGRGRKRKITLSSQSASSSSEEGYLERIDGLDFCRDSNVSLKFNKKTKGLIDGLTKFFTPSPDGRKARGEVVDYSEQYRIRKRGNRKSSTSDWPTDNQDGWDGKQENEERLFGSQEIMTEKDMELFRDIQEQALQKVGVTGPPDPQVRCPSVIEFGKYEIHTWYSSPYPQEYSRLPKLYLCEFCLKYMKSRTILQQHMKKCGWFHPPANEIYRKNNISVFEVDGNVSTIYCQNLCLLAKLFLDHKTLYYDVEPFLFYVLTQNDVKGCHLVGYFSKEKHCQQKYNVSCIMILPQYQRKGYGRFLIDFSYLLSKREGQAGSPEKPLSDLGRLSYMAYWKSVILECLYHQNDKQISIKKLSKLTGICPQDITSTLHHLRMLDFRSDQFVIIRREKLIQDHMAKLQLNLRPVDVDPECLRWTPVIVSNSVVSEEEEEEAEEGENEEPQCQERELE

SMILES | EC50 (ZR-75-1 cells) [M] | IC50 [1] [nM] | IC50 [2] [nM] | EC50 (MDA-MB-436 cells) [µM] | IC50 [3] [nM]
CCOc1cccc(Br)c1S(=O)(=O)NC(=O)c1cc2ccc(N(C)C)cc2o1 [Example 121, N-(2-Bromo-6-ethoxybenzene-1-sulfonyl)-6-(dimethylamino)-1-benzofuran-2-carboxamide] | 3.56e-07 | 275 | 227 | > 20 | 179
CCOc1ccccc1S(=O)(=O)NC(=O)c1cc2ccc(N(C)CC)cc2o1 [Example 5, N-(2-Ethoxyphenyl)sulfonyl-6-[ethyl(methyl)amino]benzofuran-2-carboxamide] | 8.76e-07 | 520 | 495 | > 20 | 1100
CN(C)c1ccc2cc(C(=O)NS(C)(=O)=O)oc2c1 [Example 63, 6-(Dimethylamino)-N-(methanesulfonyl)-1-benzofuran-2-carboxamide] | > 2e-05 | > 20000 | > 20000 | > 20 | 16500
CCOc1ccccc1S(=O)(=O)NC(=O)c1cc2ccc(N(C)C)cc2o1 [Example 223] | 5.87e-08 | 80.2 | 99.1 | > 20 | 106
CN(C)c1ccc2cc(C(=O)NS(=O)(=O)c3ccccc3Cl)oc2c1 [Example 22, N-(2-Chlorobenzene-1-sulfonyl)-6-(dimethylamino)-1-benzofuran-2-carboxamide] | 2.02e-07 | 214 | 200 | > 20 | 219
CN(C)c1ccc2cc(C(=O)NS(=O)(=O)c3ccccc3-c3cccc(Cl)c3)sc2c1 [Example 49, N-(3′-Chloro[1,1′-biphenyl]-2-sulfonyl)-6-(dimethylamino)-1-benzothiophene-2-carboxamide] | 5.17e-06 | 2470 | 528 | > 20 | 310
COc1ccc(C(C)(C)C)cc1S(=O)(=O)NC(=O)c1cc2ccc(N(C)C)cc2o1 [Example 185, N-((5-(tert-butyl)-2-methoxyphenyl)sulfonyl)-6-(dimethylamino)benzofuran-2-carboxamide] | 1.69e-08 | 15.1 | 13.9 | > 20 | 2.63
CNc1ccc2cc(C(=O)NS(=O)(=O)c3ccccc3-c3ccccc3)oc2c1 [Example 11, 6-(Methylamino)-N-(2-phenylphenyl)sulfonyl-benzofuran-2-carboxamide] | 2.84e-07 | 1930 | 205 | > 20 | 123
CN(C)c1ccc2cc(C(=O)NS(=O)(=O)C3CCOCC3)oc2c1 [Example 28, 6-(Dimethylamino)-N-(oxane-4-sulfonyl)-1-benzofuran-2-carboxamide] | 4.73e-06 | > 20000 | 2680 | > 20 | 5440
CCCOc1ccc(C)cc1S(=O)(=O)NC(=O)c1cc2ccc(N(C)C)cc2o1 [Example 115, 6-(Dimethylamino)-N-(5-methyl-2-propoxybenzene-1-sulfonyl)-1-benzofuran-2-carboxamide] | 7.02e-08 | 64.2 | 87.2 | > 20 | 64.6
COc1ccc(Cn2cccn2)cc1S(=O)(=O)NC(=O)c1cc2ccc(N(C)C)cc2o1 [Example 86, 6-(Dimethylamino)-N-{2-methoxy-5-[(1H-pyrazol-1-yl)methyl]benzene-1-sulfonyl}-1-benzofuran-2-carboxamide] | 1.57e-07 | 235 | 80 | > 20 | 64.9
COc1ccccc1S(=O)(=O)NC(=O)c1cc2c(F)cc(N(C)C)cc2o1 [Example 112, 6-(Dimethylamino)-4-fluoro-N-(2-methoxybenzene-1-sulfonyl)-1-benzofuran-2-carboxamide] | 4.78e-08 | 45.2 | 18.1 | > 20 | 17.7
CCCOc1cccc(CC)c1S(=O)(=O)NC(=O)c1cc2ccc(N(C)C)cc2o1 [Example 119, 6-(Dimethylamino)-N-(2-ethyl-6-propoxybenzene-1-sulfonyl)-1-benzofuran-2-carboxamide] | 6.98e-07 | 218 | 374 | > 20 | 185
CN(C)c1ccc2cc(C(=O)NS(=O)(=O)c3ccccc3-c3ccccc3)oc2c1C(F)(F)F [Example 202, N-([1,1′-biphenyl]-2-sulfonyl)-6-(dimethylamino)-7-(trifluoromethyl)-1-benzofuran-2-carboxamide] | > 2e-05 | > 20000 | 3010 | > 20 | 1970
CN(C)c1ccc2cc(C(=O)NS(=O)(=O)c3ccccc3OCC3CC3)oc2c1 [Example 71, N-[2-(Cyclopropylmethoxy)benzene-1-sulfonyl]-6-(dimethylamino)-1-benzofuran-2-carboxamide] | 1.92e-07 | 71.9 | 131 | > 20 | 72.4
COc1ccc2cccnc2c1S(=O)(=O)NC(=O)c1cc2ccc(N(C)C)cc2o1 [Example 70, 6-(Dimethylamino)-N-(7-methoxyquinoline-8-sulfonyl)-1-benzofuran-2-carboxamide] | 1.63e-07 | 71.3 | 109 | > 20 | 122
CN(C)c1ccc2cc(C(=O)NS(=O)(=O)c3ccccc3Oc3ccccc3)oc2c1 [Example 85, 6-(Dimethylamino)-N-(2-phenoxybenzene-1-sulfonyl)-1-benzofuran-2-carboxamide] | 4e-07 | 232 | 186 | > 20 | 115
CN(C)c1ccc2cc(C(=O)NS(=O)(=O)c3ccccc3OC(F)F)oc2c1 [Example 79, N-[2-(Difluoromethoxy)benzene-1-sulfonyl]-6-(dimethylamino)-1-benzofuran-2-carboxamide] | 2.22e-07 | 164 | 200 | > 20 | 188
CCOc1ccc([N+](=O)[O-])cc1S(=O)(=O)NC(=O)c1cc2ccc(N(C)C)cc2o1 [Example 88, 6-(Dimethylamino)-N-(2-ethoxy-5-nitrobenzene-1-sulfonyl)-1-benzofuran-2-carboxamide] | 3.2e-07 | 256 | 205 | 4.65 | 105
CC(C)Oc1ccccc1S(=O)(=O)NC(=O)c1cc2ccc(N(C)C)cc2o1 [Example 224] | 5.24e-08 | 31.4 | 76.4 | > 20 | 58.3
CCOc1cccc(-c2ccccc2)c1S(=O)(=O)NC(=O)c1cc2ccc(N(C)C)cc2o1 [Example 80, 6-(Dimethylamino)-N-(3-ethoxy[1,1′-biphenyl]-2-sulfonyl)-1-benzofuran-2-carboxamide] | 3.29e-07 | 172 | 68.8 | > 20 | 73.8
CN(C)c1ccc2cc(C(=O)NS(=O)(=O)c3cccc4ccc(Cl)nc34)oc2c1 [Example 126, N-(2-Chloroquinoline-8-sulfonyl)-6-(dimethylamino)-1-benzofuran-2-carboxamide] | 6.98e-08 | 30.6 | 23.8 | > 20 | 20.5
CCN(C)c1ccc2cc(C(=O)NS(=O)(=O)c3ccccc3Cl)oc2c1 [Example 4, N-(2-Chlorophenyl)sulfonyl-6-[ethyl(methyl)amino]benzofuran-2-carboxamide] | 3.25e-06 | 2570 | 1410 | > 20 | 2700
Cc1cc(N(C)C)cc2oc(C(=O)NS(=O)(=O)c3ccccc3-c3ccccc3)cc12 [Example 35, N-([1,1′-biphenyl]-2-sulfonyl)-6-(dimethylamino)-4-methyl-1-benzofuran-2-carboxamide] | 6.03e-06 | 14900 | 654 | > 20 | 452
CCOc1ncccc1S(=O)(=O)NC(=O)c1cc2ccc(N(C)C)cc2o1 [Example 81, 6-(Dimethylamino)-N-(2-ethoxypyridine-3-sulfonyl)-1-benzofuran-2-carboxamide] | 4.06e-07 | 188 | 377 | > 20 | 320
